Results: PMC9402746, “A phase I dose escalation, dose expansion and pharmacokinetic trial of gemcitabine and alisertib in advanced solid tumors and pancreatic cancer” (Cancer Chemotherapy and Pharmacology, 2022)
“Also recorded” adds a separate entry of the source. Like-named read-outs stand apart in the source and are kept apart here. Values belong to the compound of their own block, whether it stands above or below them.

Columns and labels:
[1] = human, in vivo, 28 days
Experimental: This was an open-label phase I clinical trial with two-phase design including a dose escalation and an expansion phase in pancreatic cancer. In the dose escalation phase, a standard 3 + 3 design was used to determine the maximum tolerated dose (MTD) of alisertib in combination with gemcitabine. Alisertib was administered orally twice daily (BID) on days 1–3, 8–10, and 15–17 of a 28-day treatment cycle. Gemcitabine was given concurrently at standard dosing of 1000 mg/m^2 intravenously on days 1, 8, 15. A starting dose of alisertib 20 mg BID was used in the dose escalation phase and was escalated in cohorts of at least three evaluable subjects at 30 mg BID, 40 mg BID, and 50 mg BID until MTD or the highest feasible dose level (Table S1). The dose of 50 mg BID was the highest dose allowable and was previously reported as the recommended phase II dose (RP2D) for alisertib monotherapy. In the expansion phase, subjects received the MTD or RP2D following the same cycle schedule. Dose adjustments were allowed for both drugs (Table S1B, 1C).
The MTD was defined as the highest dose tested in which fewer than 33% of subjects experienced DLT attributable to the study drugs, when at least six subjects were treated at that dose and evaluable for toxicity.
DLT was defined as any related (possibly, probably, or definitely) grade 3 non-hematologic toxicity or any attributable grade 4 toxicity. […]

[2] = Plasma pharmacokinetics of alisertib, non-compartmental analysis; type: in vivo, human
Experimental: (§1) Pharmacokinetic sampling was performed on the expanded cohort of subjects with pancreatic cancer treated at the RP2D. Alisertib was not administered on cycle 1, day 1 to enable gemcitabine pharmacokinetic sampling on day 1 and day 2 of cycle 1 in the absence of co-administered alisertib. This served as the reference baseline for comparison to gemcitabine pharmacokinetics when co-administered with alisertib on day 8 of cycle 1. On cycle 1 day 8, alisertib was administered within 10 min of the start of the gemcitabine infusion, and the second (evening) dose of alisertib was not administered to allow for gemcitabine measurement at the 24 h timepoint. Both the parent drug (gemcitabine, dFdC) and the metabolite (dFdU) were measured to evaluate changes in gemcitabine metabolism related to alisertib administration. Pharmacokinetic blood samples were collected with dipotassium ethylenediaminetetraacetic acid (K2EDTA) as the anticoagulant before treatment, immediately after gemcitabine infusion, and at additional pre-specified post-infusion timepoints. Actual timepoints were recorded for PK parameter evaluation. Measurement of plasma gemcitabine, dFdU, and alisertib concentrations are described in the Supplementary Methods.
(§2) Gemcitabine, dFdU and alisertib PK parameters were estimated using non-compartmental analysis (NCA) with Certara Phoenix WinNonlin 8.0 (Princeton, NJ), including mean peak concentration (Cmax) and exposure (Area Under the Curve, AUC). The AUC parameters were estimated using the linear-up-log-down trapezoidal rule. Tests of significance between day 1 and day 8 PK parameters were performed using paired t-tests with GraphPad Prism 6.07 (San Diego, CA).

[3] = Treatment exposures, delays and dose reductions; type: in vivo, human
Excerpt: To proceed to the next cycle, lab parameters included ANC ≥ 1500/mm^3 and platelet count ≥ 100,000/mm^3, and all other toxicity considered by the investigator to be related to therapy with alisertib or gemcitabine must have resolved to grade ≤ 1 or to the subject’s baseline values. […] Thereafter, the subject was re-evaluated to determine continuation eligibility. Dose modification (Table S1B, 1C) was required for cycle initiations delayed > 1 week due to incomplete recovery from treatment-related toxicity.
Median number of cycles per subject was 3 (range 1–13), and median duration of treatment was 2.84 months (range 0.36–13.22). Similar median duration of treatment and cycles delivered were observed between the dose levels (Table S2). Proportion of planned dose received, defined as total dose received divided by total planned dose according to the dose level for alisertib and 1000 mg/m^2 for gemcitabine, was calculated according to each subject (Table S3) and each cycle (Fig. 1).

[4] = system: Aurora Kinase A (AKA) compared to Aurora Kinase B; parameters: method as in PMID 20382844, PMID 21556291; conditions: cited from earlier work
[5] = system: selected CYPs; parameters: method as in PMID 31911485; conditions: in vitro; cited from earlier work
[6] = parameters: method as in PMID 22753585, PMID 24879333, PMID 25302940; conditions: twice daily for 7 days in a 21-day cycle; cited from earlier work
[7] = system: multiple solid organ malignancies; parameters: method as in PMID 25728526; conditions: cited from earlier work
[8] = system: breast/ovarian cancer; parameters: method as in PMID 30347019; conditions: cited from earlier work
[9] = parameters: method as in PMID 28852909; conditions: published literature; cited from earlier work
[10] = Plasma pharmacokinetics of gemcitabine and dFdU without and with alisertib, non-compartmental analysis; type: in vivo, human; conditions: for Percentage extrapolated AUC0->inf, Mean / Cmax / AUC(0-inf) / AUC(0-t): plasma, gemcitabine 1000 mg/m^2 IV; for Cmax / AUC(0-inf) / AUC(0-t): human, iv; for AUC(0-inf): read-out: AUC0->inf, Mean (converted); for AUC(0-t): read-out: AUC0->last, Mean (converted); for Effect of co-administered alisertib on NCA PK parameters (day 1 vs day 8): paired t test, P > 0.05
Experimental: as §1, §2

[11] = system: small cell lung cancer; parameters: method as in PMID 31655296; conditions: cited from earlier work
[12] = monotherapy trial of solid tumors
[13] = 1000 mg/m2, Day 1 (without alisertib), N 5
[14] = 1000 mg/m2, Day 8 (with alisertib), N 4

Structure (SMILES): COc1cc(Nc2ncc3c(n2)-c2ccc(Cl)cc2C(c2c(F)cccc2OC)=NC3)ccc1C(=O)O [alisertib]
- Recommended phase 2 dose of alisertib combined with gemcitabine [1]: 50 mg
- Cmax ([2]; Subject 22, day 8, unexpectedly high): 1750 ng/mL
- Percentage extrapolated AUC0->inf, Mean ([2]; alisertib oral at RP2D with gemcitabine, cycle 1 day 8, plasma, N 4): 25.08%
- Tmax ([2]; human, plasma, oral, Subject 24, day 8, unexpectedly long, read-out: Tmax): 24 h
- Tmax ([2]; human, plasma, oral, other subjects here, day 8, read-out: Tmax): 1.5 to 4.5 h
- Cmax ([2]; human, plasma, oral, observed here with gemcitabine, similar to previously reported, read-out: Cmax): 700 to 900 ng/mL
- Tmax ([2]; human, plasma, po, alisertib oral at RP2D with gemcitabine, cycle 1 day 8, plasma, N 5, read-out: Tmax, Mean (converted)): 7.52 h
- AUC(0-inf) ([2]; human, alisertib oral at RP2D with gemcitabine, cycle 1 day 8, plasma, N 4, read-out: AUC0->inf, Mean (converted)): 16300 ng·h/mL
- AUC(0-t) ([2]; human, alisertib oral at RP2D with gemcitabine, cycle 1 day 8, plasma, N 5, read-out: AUC0->last, Mean (converted)): 11800 ng·h/mL
- Cmax ([2]; human, alisertib oral at RP2D with gemcitabine, cycle 1 day 8, plasma, N 5, read-out: Cmax, Mean): 973 ng/mL
- Subjects who underwent dose delays/omissions ([3]; of 26 subjects): 18 subjects
- Subjects with dose reductions ([3]; of 26 subjects): 9 subjects
- Cycles modified ([3]; of 94 cycles delivered): 27 cycles
- Selectivity for AKA compared to Aurora Kinase B [4]: > 200 fold
- Inhibition of selected CYPs [5]: not shown appreciable inhibition
- RP2D of alisertib monotherapy [6]: 50 mg
- Rate of SAEs [7, 12]: 43%
- Treatment-related adverse events: anemia [7, 12]: 10%
- Treatment-related adverse events: leukopenia [7, 12]: 21%
- Treatment-related adverse events: neutropenia [7, 12]: 43%
- Response rates ([7]; monotherapy, depending on the primary tumor subtype): 5–20%
- RP2D of alisertib in combination with paclitaxel ([8]; twice daily, schedule similar to the one reported here): 40 mg
- Tmax [9]: 3 to 4 h

- Percentage extrapolated AUC0->inf, Mean ([10]; Day 1 (without alisertib), N 5): 18.13%
- Percentage extrapolated AUC0->inf, Mean ([10]; Day 8 (with alisertib), N 4): 15.73%
- Cmax [10, 13]: 67900 ng/mL
- AUC(0-inf) [10, 13]: 412000 ng·h/mL
- AUC(0-t) [10, 13]: 363000 ng·h/mL
- Cmax [10, 14]: 73800 ng/mL
- AUC(0-inf) [10, 14]: 363000 ng·h/mL
- AUC(0-t) [10, 14]: 343000 ng·h/mL
Structure (SMILES): O=c1ccn([C@@H]2O[C@H](CO)[C@@H](O)C2(F)F)c(=O)[nH]1 [dFdU, 2′, 2′-difluorodeoxyuridine]
- Effect of co-administered alisertib on NCA PK parameters (day 1 vs day 8) [10]: No significant changes; also recorded: not significantly affected

- Percentage extrapolated AUC0->inf, Mean ([10]; Day 1 (without alisertib), N 5): 0.14%
- Percentage extrapolated AUC0->inf, Mean ([10]; Day 8 (with alisertib), N 4): 0.32%
- Cmax [10, 13]: 7420 ng/mL
- AUC(0-inf) [10, 13]: 3600 ng·h/mL
- AUC(0-t) [10, 13]: 3600 ng·h/mL
- Cmax [10, 14]: 6240 ng/mL
- AUC(0-inf) [10, 14]: 3240 ng·h/mL
- AUC(0-t) [10, 14]: 3230 ng·h/mL
- Subjects who required dose delays ([3]; of 26 subjects): 16 subjects
- Subjects who required dose omission ([3]; of 26 subjects): 14 subjects
- Subjects with dose reductions ([3]; of 26 subjects): 5 subjects
- Cycles given at a reduced dose ([3]; of 94 cycles delivered): 10 cycles
- Cycles with delayed doses ([3]; of 94 cycles delivered): 43 cycles
- Cycles with dose omissions ([3]; of 94 cycles delivered): 17 cycles
Structure (SMILES): Nc1ccn([C@@H]2O[C@H](CO)[C@@H](O)C2(F)F)c(=O)n1 [gemcitabine]
- Effect of co-administered alisertib on NCA PK parameters (day 1 vs day 8) [10]: No significant changes; also recorded: not significantly affected

Structure (SMILES): CC(=O)O[C@H]1C(=O)[C@@]2(C)[C@H]([C@H](OC(=O)c3ccccc3)[C@]3(O)C[C@H](OC(=O)[C@H](O)[C@@H](NC(=O)c4ccccc4)c4ccccc4)C(C)=C1C3(C)C)[C@]1(OC(C)=O)CO[C@@H]1C[C@@H]2O [paclitaxel]
- mPFS ([11]; 89 subjects in each arm): 2.17 months
- Response rate [11]: 18%
- mPFS ([8]; breast/ovarian subjects): 4.7 months
- Response rate ([8]; breast/ovarian subjects, p = 0.38): 52%
